In one test the test system is Candida tropicalis. In words: Antifungal activity against Candida tropicalis assessed as fungal growth inhibition. It is filed as functional.
The subject of test [1] is Nannizzia gypsea. In words: Antifungal activity against Microsporum gypseum ATCC31388. It is filed as functional.
In test [2] the test system is Pyricularia oryzae. In words: Antifungal activity against Pyricularia oryzae. It is filed as functional.
The test system of another test is Alternaria solani. In words: Antifungal activity against Alternaria solani. It is filed as functional.
Test [3] deals with Candida albicans. In words: Antifungal activity against Candida albicans ATCC 24433. It is filed as functional.
For the next test, the system named is Alternaria brassicae. In words: Antifungal activity against Alternaria brassicae assessed as inhibition of fungal growth. It is filed as functional.
Test [4] in a line: Inhibition of Candida albicans CaCdr1p transporter assessed as reduction in rhodamine 6G efflux.
A short description of test [5]: Inhibition of Candida albicans CaCdr1p transporter ATPase activity.
Test [6] has as its system Colletotrichum gloeosporioides. In words: Antifungal activity against Colletotrichum gloeosporioides. It is filed as functional.
Test [7] concerns Aspergillus fumigatus. Put plainly: Antimicrobial activity against Aspergillus fumigatus. It is filed as functional.
Test [8] relates to Pyricularia oryzae. In words: Antifungal activity against Pyricularia oryzae assessed as inhibition of fungal growth. It is filed as functional.
In another test the test system is Lindra thalassiae. Put plainly: Antifungal activity against Lindra thalassiae assessed as lethal dose. It is filed as functional. Conditions: Lindriella thalassiae; read-out: LD50 (the source's name).
For a further test, the system named is Epidermophyton floccosum. Put plainly: Antifungal activity against Epidermophyton floccosum measured after 96 hrs by two fold serial dilution technique. It is filed as functional.
Test [9] concerns Trichophyton mentagrophytes. In words: Antifungal activity against Trichophyton mentagrophytes measured after 96 hrs by two fold serial dilution technique. It is filed as functional.
Test [10] concerns Nannizzia gypsea. Put plainly: Antifungal activity against Microsporum gypseum measured after 96 hrs by two fold serial dilution technique. It is filed as functional.
Test [11] deals with Aspergillus niger. In words: Antifungal activity against Aspergillus niger measured after 96 hrs by two fold serial dilution technique. It is filed as functional.
Test [12] has as its system Aspergillus fumigatus. Put plainly: Antifungal activity against Aspergillus fumigatus measured after 96 hrs by two fold serial dilution technique. It is filed as functional.
In the next test the test system is Fusarium oxysporum. Put plainly: Antifungal activity against Fusarium oxysporum measured after 96 hrs by two fold serial dilution technique. It is filed as functional.
The subject of test [13] is Candida albicans. Put plainly: Antifungal activity against Candida albicans measured after 96 hrs by two fold serial dilution technique. It is filed as functional.
In a further test the test system is Rhagastis acuta. In words: Antifungal activity against Rhagastis acuta measured after 3 to 4 days by agar plate diffusion method. It is filed as functional. Conditions: time 3-4 day.
Another test deals with Ogataea angusta. In words: Antifungal activity against Pichia angusta measured after 3 to 4 days by agar plate diffusion method. It is filed as functional. Conditions: time 3-4 day.
Test [14] concerns Candida albicans. In words: Antifungal activity against Candida albicans measured after 3 to 4 days by agar plate diffusion method. It is filed as functional. Conditions: time 3-4 day.
Test [15] relates to Aspergillus niger. Put plainly: Antifungal activity against Aspergillus niger measured after 3 to 4 days by agar plate diffusion method. It is filed as functional. Conditions: time 3-4 day.
For a further test, the system named is Cryptococcus neoformans. Put plainly: Antifungal activity against Cryptococcus neoformans measured after 3 to 4 days by agar plate diffusion method. Conditions: time 3-4 day. It is filed as functional.
In a further test the test system is Botrytis fabae. In words: Antifungal activity against Botrytis fabae measured after 3 to 4 days by agar plate diffusion method. It is filed as functional. Conditions: time 3-4 day.
The test system of a further test is Gaeumannomyces graminis. In words: Antimicrobial activity against Gaeumannomyces graminis. It is filed as functional.

Values after ≈ are worked out from the molar mass of the structure shown.

In general, MIC refers to the lowest concentration that inhibits growth of the organism. On to `C=C(C)CCC[C@@]1(C)OC(=O)[C@]23CC=C4C(=CC[C@H]5C(C)(C)[C@@H](O[C@@H]6OC[C@@H](O[C@@H]7O[C@H](CO)[C@@H](O)[C@H](O[C@@H]8O[C@H](CO)[C@@H](O)[C@H](O)[C@H]8O)[C@H]7O)[C@H](O)[C@H]6O[C@@H]6O[C@H](CO)[C@@H](O[C@@H]7OC[C@@H](O)[C@H](O[C@@H]8O[C@H](CO)[C@@H](O)[C@H](OC)[C@H]8O)[C@H]7O)[C@H](O)[C@H]6O)CC[C@]45C)[C@@]2(C)CC(=O)[C@@H]13`, for which the MIC in the test with Candida tropicalis and in the test on Nannizzia gypsea [1] was 1.4 µM (≈ 1.95 µg/mL) throughout.
On to `CC1CC[C@@H](O)/C=C/CC[C@H](O)C[C@@H](O)C/C=C\C=C\[C@@H](O)C/C=C/C=C\C(=O)O1` (some centres not stated), for which the MIC against Pyricularia oryzae [2] and with Alternaria solani was 0.8 µg/mL (≈ 1.9 µM) each time.
`CO[C@H](c1ccc(O)cc1)[C@@H](NC(=O)[C@H](CCC(N)=O)NC(=O)[C@H](CC(C)C)NC(=O)[C@@H](CCCNC(=N)N)NC(=O)[C@H](NC(=O)[C@H](NC(=O)[C@@H](NC(=O)[C@H](O)[C@H](O)[C@H](CCCNC(=N)N)NC(=O)[C@@H](C)NC(=O)[C@H](C)[C@H](O)[C@H](C)CC(C)C)[C@@H](C)CC(N)=O)[C@@H](C)O)[C@@H](C)O)C(=O)N(C)[C@@H](C)C(=O)O` had an MIC with Candida albicans [3] of 0.15 µg/mL (≈ 0.1 µM).
With `COc1ccc2c(c1OC)O[C@]1(C(=O)N3O[C@@H]4C(=CC=C[C@H]4O)C[C@@]3(SC)C(=O)N1C)[C@@H]2SC`, the MIC in the test on Alternaria brassicae is 4 µg/mL (≈ 7.9 µM).
The IC50 is the concentration that gives 50% inhibition. `CCC[C@@H]1CC(=O)N[C@@H](CC(C)C)C(=O)N[C@H](Cc2ccccc2)C(=O)N[C@@H](CC(C)C)C(=O)N[C@@H](Cc2ccccc2)C(=O)O1`: the values for the IC50 in test [4] and in test [5] were 2.29 µg/mL (≈ 3.61 µM) and 0.31 µg/mL (≈ 0.488 µM), respectively.
The compound `CC1=CC[C@]23C[C@H]1C[C@@](C)(O)[C@H]2[C@H](O)C[C@@H]3C` came in with an MIC in test [6] of 1 µg/mL (≈ 4.23 µM).
Consider `COc1ccc(/C=C/CCCC[C@H](C)[C@H](O)[C@@H](O)[C@H]2NC(=O)C[C@@H](O)CNC(=O)CNC(=O)[C@@H](Cc3c(C(=O)O)[nH]c4ccccc34)NC(=O)CN(C)C(=O)C[C@H]3NC(=O)C[C@H]3NC(=O)[C@H]2O)cc1`, for which the lowest concentration to inhibit growth with Aspergillus fumigatus [7] (MIC) was 0.6 µg/mL (≈ 0.623 µM).
For the compound `CC(C)=CCn1cc(CC2NC(=O)C(C(C)C)NC2=O)c2ccccc21` (configuration not stated), in the test with Pyricularia oryzae [8], the minimum inhibitory concentration (MIC) is 0.127 µg/mL (≈ 0.359 µM).
For `CC(C)CC(=O)C[C@@H](C)[C@H]1CC[C@@]2(C)[C@H]3CC[C@H]4[C@](CO)(COS(=O)(=O)[O-])C(=O)CC[C@@]45C[C@@]35CC[C@]12C.[Na+]`, the LC50 in the test with Lindra thalassiae stood at 0.94 µg/mL.
Turning to `CC(=O)OCc1cc(=O)occ1O`, the MIC (against Epidermophyton floccosum; in test [9]; against Nannizzia gypsea [10]; against Aspergillus niger [11]; against Aspergillus fumigatus [12]; against Fusarium oxysporum) was 1 µg/mL (≈ 5.43 µM) in each case. The compound further came in with an MIC with Candida albicans [13] of 1 µg/mL (≈ 5.43 µM).
Turning to `CC[C@@H](CC(=O)C(Cl)Cl)[C@H](C)c1ccc([N+](=O)[O-])cc1`, the MIC against Rhagastis acuta, against Ogataea angusta, in the test with Candida albicans [14], against Aspergillus niger [15], against Cryptococcus neoformans and against Botrytis fabae was 0.1 µg/mL (≈ 0.314 µM) each time.
In the case of `CC(=O)OC[C@@]1(COS(=O)(=O)[O-])C(=O)CC[C@]23C[C@]24CC[C@]2(C)[C@@H]([C@H](C)CC(=O)CC(C)C)CC[C@@]2(C)[C@H]4CC[C@@H]13.[Na+]`, in the test on Lindra thalassiae, the LC50 was found to be 0.03 µg/mL.
Consider `CS[C@@]12C[C@@H]3C(=O)CC[C@H](O)[C@@H]3N1C(=O)[C@]1(SC)C[C@H]3C(=O)CC[C@@H](O)[C@@H]3N1C2=O`, for which 0.25 µg/mL (≈ 0.55 µM) was the least that counted as inhibitory in the test on Gaeumannomyces graminis (MIC).

The values are drawn from ChEMBL document CHEMBL5260795, “Antifungal potential of marine natural products” (Eur J Med Chem, 2017).
